Measured values: PubChem BioAssay AID248 (DTP/NCI, 2004)
Where “and” joins values, the source holds several entries; their conditions need not be identical. Identical values can stand only once. Toxic doses and inconclusive results are not listed. Square brackets hold non-standard residues; d marks the D form. Peptide text beside a SMILES is read from it. Ac5c = NC1(C(=O)O)CCCC1

Tested on: L1210 leukemia ip in BDF1 mice, survival T/C
Assay: NCI In Vivo Anticancer Drug Screen. Data for tumor model L1210 Leukemia (intraperitoneal) in B6D2F1 (BDF1) mice
Conditions: endpoint: mean survival time, higher = longer survival
How it was run: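 Each compound was tested against a transplantable tumor grown in mice. The endpoint was survival, with treated animals benchmarked against vehicle controls as a simple ratio.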

[1] = dose: 100.0 mg/kg/injection, schedule: Q01DX001 (ip), vehicle: carboxymethylcellulose (CMC)
[2] = dose: 200.0 mg/kg/injection, schedule: Q01DX001 (ip), vehicle: carboxymethylcellulose (CMC)
[3] = dose: 400.0 mg/kg/injection, schedule: Q01DX001 (ip), vehicle: carboxymethylcellulose (CMC)
[4] = dose: 100.0 mg/kg/injection, schedule: Q01DX009 (ip), vehicle: saline with Tween-80
[5] = dose: 200.0 mg/kg/injection, schedule: Q01DX009 (ip), vehicle: saline with Tween-80
[6] = dose: 100.0 mg/kg/injection, schedule: Q04DX002 (ip), vehicle: Klucel (hydroxypropylcellulose) (HPC)
[7] = dose: 100.0 mg/kg/injection, schedule: Q04DX003 (ip), vehicle: saline
[8] = dose: 200.0 mg/kg/injection, schedule: Q04DX003 (ip), vehicle: saline
[9] = dose: 100.0 mg/kg/injection, schedule: Q04DX003 (ip), vehicle: saline with Tween-80
[10] = dose: 200.0 mg/kg/injection, schedule: Q04DX003 (ip), vehicle: saline with Tween-80
[11] = dose: 100.0 mg/kg/injection, schedule: Q01DX001 (ip), vehicle: Klucel (hydroxypropylcellulose) (HPC)
[12] = dose: 200.0 mg/kg/injection, schedule: Q01DX001 (ip), vehicle: Klucel (hydroxypropylcellulose) (HPC)
[13] = dose: 400.0 mg/kg/injection, schedule: Q01DX001 (ip), vehicle: Klucel (hydroxypropylcellulose) (HPC)
[14] = dose: 50.0 mg/kg/injection, schedule: Q01DX001 (ip), vehicle: saline
[15] = dose: 100.0 mg/kg/injection, schedule: Q01DX001 (ip), vehicle: saline
[16] = dose: 200.0 mg/kg/injection, schedule: Q01DX001 (ip), vehicle: saline

SMILES: Cc1cc(C)n2nc(N)nc2n1
- T/C [1]: 101 % of control
- T/C [2]: 95 % of control
- T/C [3]: 95 % of control

SMILES: Cc1cccc(N2C(N)=NC(N)=NC2(C)C)c1
- T/C (dose: 25.0 mg/kg/injection, schedule: Q04DX003 (ip), vehicle: Klucel (hydroxypropylcellulose) (HPC)): 103 % of control
- T/C (dose: 50.0 mg/kg/injection, schedule: Q04DX003 (ip), vehicle: Klucel (hydroxypropylcellulose) (HPC)): 124 % of control
- T/C (dose: 75.0 mg/kg/injection, schedule: Q01DX001 (ip), vehicle: saline): 101 % of control

SMILES: CC1(C(N)=O)CC2C=CC1C2 (stereo unspecified)
- T/C [2]: 98 % of control
- T/C [3]: 95 % of control

SMILES: CCOC(=O)CNC(=O)Oc1cc(C)cc(C)c1C
- T/C [4]: 98 % of control
- T/C [5]: 100 % of control
- T/C (dose: 400.0 mg/kg/injection, schedule: Q01DX009 (ip), vehicle: saline with Tween-80): 98 % of control

SMILES: N#CCCN1c2ccccc2Sc2ccc(Cl)cc21
- T/C (dose: 100.0 mg/kg/injection, schedule: Q01DX009 (ip), vehicle: Klucel (hydroxypropylcellulose) (HPC)): 96 % of control
- T/C (dose: 200.0 mg/kg/injection, schedule: Q01DX009 (ip), vehicle: Klucel (hydroxypropylcellulose) (HPC)): 101 % of control
- T/C (dose: 400.0 mg/kg/injection, schedule: Q01DX009 (ip), vehicle: Klucel (hydroxypropylcellulose) (HPC)): 98 % of control

SMILES: CC1(C)CC(=O)C2=C(C1)Nc1ccccc1NC2c1ccc([N+](=O)[O-])cc1 (stereo unspecified)
- T/C [6]: 103 % of control
- T/C (dose: 200.0 mg/kg/injection, schedule: Q04DX002 (ip), vehicle: Klucel (hydroxypropylcellulose) (HPC)): 109 % of control
- T/C (dose: 400.0 mg/kg/injection, schedule: Q04DX002 (ip), vehicle: Klucel (hydroxypropylcellulose) (HPC)): 106 % of control

SMILES: NC1(C(=O)NCC(=O)O)CCCC1 (H-[Ac5c]-Gly-OH)
- T/C [7]: 104 % of control
- T/C [8]: 100 % of control

SMILES: CCOC(=O)C12CCC(C1=O)C(C)(O)CC2 (stereo unspecified)
- T/C [9]: 108 % of control
- T/C [10]: 97 % of control

SMILES: COc1cc(C=O)cc(C=O)c1O
- T/C (dose: 25.0 mg/kg/injection, schedule: Q01DX001 (ip), vehicle: saline with Tween-80): 96 % of control
- T/C (dose: 50.0 mg/kg/injection, schedule: Q01DX001 (ip), vehicle: saline with Tween-80): 104 % of control
- T/C (dose: 100.0 mg/kg/injection, schedule: Q01DX001 (ip), vehicle: saline with Tween-80): 90 % of control

SMILES: COc1ccc2c(c1)CC(=CO)CC2=O.COc1ccc2c(c1)CC/C(=C/O)C2=O.[Cu]
- T/C [4]: 98 % of control
- T/C (dose: 100.0 mg/kg/injection, schedule: Q04DX003 (ip), vehicle: saline sonified): 101 % of control
- T/C [5]: 110 % of control
- T/C (dose: 200.0 mg/kg/injection, schedule: Q04DX003 (ip), vehicle: saline sonified): 90 % of control
- T/C (dose: 400.0 mg/kg/injection, schedule: Q04DX003 (ip), vehicle: saline sonified): 104 % of control

SMILES: CC(C)CC(C)c1c(N)nc(N)[nH]c1=O (stereo unspecified)
- T/C [11]: 97 % of control
- T/C [12]: 103 % of control
- T/C [13]: 109 % of control

SMILES: NC(CSSCC(N)C(=O)O)C(=O)O (stereo unspecified)
- T/C [1]: 95 % of control
- T/C (dose: 100.0 mg/kg/injection, schedule: Q04DX003 (ip), vehicle: Klucel (hydroxypropylcellulose) (HPC)): 93 % of control
- T/C [2]: 94 % of control
- T/C (dose: 200.0 mg/kg/injection, schedule: Q04DX003 (ip), vehicle: Klucel (hydroxypropylcellulose) (HPC)): 93 % of control
- T/C [3]: 95 % of control
- T/C (dose: 400.0 mg/kg/injection, schedule: Q04DX003 (ip), vehicle: Klucel (hydroxypropylcellulose) (HPC)): 91 % of control

SMILES: Cc1nc(N)[nH]c(=O)c1N=Nc1ccc(S(=O)(=O)O)cc1
- T/C [14]: 98 % of control
- T/C [15]: 98 % of control
- T/C [16]: 104 % of control

SMILES: CCCCCCCCC(=O)[O][Hg][c]1ccccc1
- T/C (dose: 75.0 mg/kg/injection, schedule: Q01DX001 (ip), vehicle: other): 106 % of control

SMILES: S=c1[nH]c2ccccc2s1.[Pb]
- T/C [11]: 94 % of control
- T/C [12]: 100 % of control
- T/C [13]: 100 % of control

SMILES: CNCCNC
- T/C [15]: 94 % of control
- T/C (dose: 100.0 mg/kg/injection, schedule: Q04DX002 (ip), vehicle: saline): 103 % of control
- T/C [16]: 102 % of control
- T/C (dose: 200.0 mg/kg/injection, schedule: Q04DX002 (ip), vehicle: saline): 103 % of control
- T/C (dose: 400.0 mg/kg/injection, schedule: Q01DX001 (ip), vehicle: saline): 96 % of control
- T/C (dose: 400.0 mg/kg/injection, schedule: Q04DX002 (ip), vehicle: saline): 90 % of control

SMILES: S=C(NCc1ccco1)NCc1ccco1
- T/C (dose: 155.0 mg/kg/injection, schedule: Q01DX Z (ip), vehicle: methylcellulose (MC)): 92 % of control
- T/C (dose: 233.0 mg/kg/injection, schedule: Q01DX Z (ip), vehicle: methylcellulose (MC)): 100 % of control

SMILES: CC1(CNC(=O)C(=O)NCC2(C)CO2)CO1 (stereo unspecified)
- T/C (dose: 15.0 mg/kg/injection, schedule: Q01DX009 (ip), vehicle: acetone): 98 % of control
- T/C (dose: 23.0 mg/kg/injection, schedule: Q01DX009 (ip), vehicle: acetone): 98 % of control
- T/C (dose: 25.0 mg/kg/injection, schedule: Q01DX Z (ip), vehicle: saline): 121 % of control
- T/C (dose: 40.0 mg/kg/injection, schedule: Q01DX Z (ip), vehicle: other): 120 % of control
- T/C [14]: 101 % of control
- T/C (dose: 50.0 mg/kg/injection, schedule: Q01DX009 (ip), vehicle: saline): 124 % of control
- T/C (dose: 50.0 mg/kg/injection, schedule: Q01DX Z (ip), vehicle: saline): 116 % of control
- T/C (dose: 50.0 mg/kg/injection, schedule: Q04DX003 (ip), vehicle: saline): 124 % of control
- T/C (dose: 100.0 mg/kg/injection, schedule: Q01DX001 (ip), vehicle: acetone): 123 % of control
- T/C [15]: 110 % of control and 113 % of control
- T/C (dose: 100.0 mg/kg/injection, schedule: Q01DX009 (ip), vehicle: saline): 150 % of control
- T/C (dose: 100.0 mg/kg/injection, schedule: Q01DX Z (ip), vehicle: other): 96 % of control
- T/C (dose: 132.0 mg/kg/injection, schedule: Q04DX003 (ip), vehicle: saline): 117 % of control
- T/C (dose: 150.0 mg/kg/injection, schedule: Q01DX009 (ip), vehicle: saline): 157 % of control and 163 % of control
- T/C (dose: 150.0 mg/kg/injection, schedule: Q01DX Z (ip), vehicle: carboxymethylcellulose (CMC)): 121 % of control
- T/C (dose: 200.0 mg/kg/injection, schedule: Q01DX001 (ip), vehicle: acetone): 119 % of control
- T/C [16]: 120 % of control
- T/C [8]: 157 % of control and 166 % of control
- T/C (dose: 225.0 mg/kg/injection, schedule: Q01DX009 (ip), vehicle: saline): 180 % of control
- T/C (dose: 225.0 mg/kg/injection, schedule: Q01DX Z (ip), vehicle: carboxymethylcellulose (CMC)): 96 % of control
- T/C (dose: 300.0 mg/kg/injection, schedule: Q01DX009 (ip), vehicle: saline): 94 % of control
- T/C (dose: 300.0 mg/kg/injection, schedule: Q04DX003 (ip), vehicle: saline): 158 % of control and 189 % of control
- T/C (dose: 338.0 mg/kg/injection, schedule: Q01DX Z (ip), vehicle: other): 106 % of control
- T/C (dose: 400.0 mg/kg/injection, schedule: Q01DX001 (ip), vehicle: acetone): 204 % of control

SMILES: N#CCCOCCOCCC#N
- T/C [7]: 109 % of control
- T/C [8]: 101 % of control
- T/C (dose: 400.0 mg/kg/injection, schedule: Q04DX003 (ip), vehicle: saline): 95 % of control

SMILES: COc1cc(OC)c(Oc2cc(OC)c(OC)c(OC)c2)c(OC)c1
- T/C [9]: 97 % of control
- T/C [10]: 103 % of control
- T/C (dose: 400.0 mg/kg/injection, schedule: Q04DX003 (ip), vehicle: saline with Tween-80): 101 % of control

SMILES: CC1(C)CC1(F)Cl (stereo unspecified)
- T/C [1]: 103 % of control
- T/C [2]: 97 % of control
- T/C [3]: 101 % of control

SMILES: NCCc1cc(O)c(O)c(S(=O)(=O)c2ccccc2)c1
- T/C (dose: 87.5 mg/kg/injection, schedule: Q01DX009 (ip), vehicle: saline): 96 % of control
- T/C (dose: 175.0 mg/kg/injection, schedule: Q01DX009 (ip), vehicle: saline): 94 % of control
- T/C (dose: 350.0 mg/kg/injection, schedule: Q01DX009 (ip), vehicle: saline): 115 % of control

SMILES: O=C1C=CC2C3C=CC(CC3)C12 (stereo unspecified)
- T/C (dose: 50.0 mg/kg/injection, schedule: Q04DX002 (ip), vehicle: Klucel (hydroxypropylcellulose) (HPC)): 89 % of control
- T/C [6]: 93 % of control
